According to EP0550016A1, “Novel quinolone carboxylic acid derivatives and processes for preparing same” (KOREA RESEARCH INSTITUTE OF CHEMICAL TECHNOLOGY, priority 1991, dated 1993):
≈ marks a conversion by molar mass, not a printed value. Like-named read-outs stand apart in the source and are kept apart here.

What was measured:
Test in all cases: In vitro anti-bacterial activity test (MIC, two-fold dilution method) against the standard strains
Format in all cases: cell-based
Escherichia coli DC 0 [1] = conditions: DC0; Table 1 strain 7: Escherichia coli DC 0
[2] = test system: Enterobacter cloacae P 99; conditions: P99; Table 1 strain 19: Enterobacter cloacae P 99
[3] = test system: Staphylococcus aureus SG 511; conditions: SG511; Table 1 strain 4: Staphylococcus aureus SG 511
[4] = test system: Klebsiella aerogenes 1082 E; conditions: Table 1 strain 17: Klebsiella aerogenes 1082 E
Escherichia coli 1507 E = conditions: Table 1 strain 11: Escherichia coli 1507 E
[5] = test system: Streptococcus pyogenes 77 A; conditions: Table 1 strain 2: Streptococcus pyogenes 77 A; read-out: MIC
[6] = test system: Streptococcus faecium MD 8b; conditions: Enterococcus faecium, MD8B; Table 1 strain 3: Streptococcus faecium MD 8b; read-out: MIC
Escherichia coli OTEM = conditions: Table 1 strain 10: Escherichia coli OTEM
[7] = test system: Klebsiella aerogenes 1522 E; conditions: Table 1 strain 18: Klebsiella aerogenes 1522 E
Salmonella typhimurium = conditions: Salmonella enterica; Table 1 strain 16: Salmonella typhimurium
[8] = test system: Pseudomonas aeruginosa 1592 E; conditions: Table 1 strain 13: Pseudomonas aeruginosa 1592 E
Escherichia coli DC 0 [9] = conditions: DC0; Table 1 strain 8: Escherichia coli DC 0
[10] = test system: Pseudomonas aeruginosa 1771; conditions: Table 1 strain 14: Pseudomonas aeruginosa 1771
Escherichia coli DC 2 = conditions: DC2
[11] = test system: Pseudomonas aeruginosa 9027; conditions: Table 1 strain 12: Pseudomonas aeruginosa 9027
[12] = test system: Staphylococcus aureus 503; conditions: Table 1 strain 6: Staphylococcus aureus 503; read-out: MIC
[13] = test system: Enterobacter cloacae 1321 E; conditions: Table 1 strain 20: Enterobacter cloacae 1321 E
[14] = test system: Staphylococcus aureus 285; conditions: Table 1 strain 5: Staphylococcus aureus 285; read-out: MIC
[15] = test system: Streptococcus pyogenes 308 A; conditions: Table 1 strain 1: Streptococcus pyogenes 308 A
[16] = test system: Pseudomonas aeruginosa 1771 M; conditions: Table 1 strain 15: Pseudomonas aeruginosa 1771 M
[17] = Table 1 strain 9: Escherichia coli DC 2, read-out: MIC

Row | Compound | MIC (Escherichia coli DC 0 [1]) [µg/mL] | MIC [2] [µg/mL] | MIC [3] [µg/mL] | MIC [4] [µg/mL] | MIC (Escherichia coli 1507 E) [µg/mL] | MIC [5] [µg/mL] | MIC [6] [µg/mL] | MIC (Escherichia coli OTEM) [µg/mL] | MIC [7] [µg/mL] | MIC (Salmonella typhimurium) [µg/mL] | MIC [8] [µg/mL] | MIC (Escherichia coli DC 0 [9]) [µg/mL] | MIC [10] [µg/mL] | MIC (Escherichia coli DC 2; [17]) [µg/mL] | MIC [11] [µg/mL] | MIC [12] [µg/mL] | MIC [13] [µg/mL] | MIC [14] [µg/mL] | MIC [15] [µg/mL] | MIC [16] [µg/mL] | other results
1 | NC1CC12CCCN(c1c(F)cc3c(=O)c(C(=O)O)cn(C4CC4)c3c1F)C2 (centres unmarked) [Example 16, 7-(1-amino-5-azaspiro[2,5]octane-5-yl)-1-cyclopropyl-6,8-difluoro-1,4-dihydro-4-oxoquinoline-3-carboxylic acid] | 0.049 (≈ 0.126 µM) | 0.049 (≈ 0.126 µM) | 0.098 (≈ 0.252 µM) | 0.013 (≈ 0.0334 µM) | 0.098 (≈ 0.252 µM) | 0.391 (≈ 1 µM) | 0.391 (≈ 1 µM) | 0.098 (≈ 0.252 µM) | 0.098 (≈ 0.252 µM) | 0.049 (≈ 0.126 µM) | 3.12 (≈ 8.03 µM) | 1.56 (≈ 4.01 µM) | 3.12 (≈ 8.03 µM) | 0.195 (≈ 0.501 µM) | 6.25 (≈ 16.1 µM) | 0.098 (≈ 0.252 µM) | 0.049 (≈ 0.126 µM) | 0.098 (≈ 0.252 µM) | 0.781 (≈ 2.01 µM) | 0.781 (≈ 2.01 µM) | 
2 | CNC1CC12CCN(c1c(F)c(N)c3c(=O)c(C(=O)O)cn(C4CC4)c3c1F)C2 (centres unmarked) [Example 12, 7-(1-methylamino-5-azaspiro[2,4]heptane-5-yl)-1-cyclopropyl-5-amino-6,8-difluoro-1,4-dihydro-4-oxoquinoline-3-carboxylic acid] | 0.025 (≈ 0.0618 µM) | 0.049 (≈ 0.121 µM) | 0.025 (≈ 0.0618 µM) | < 0.002 | 0.049 (≈ 0.121 µM) | 0.195 (≈ 0.482 µM) | 0.195 (≈ 0.482 µM) | 0.049 (≈ 0.121 µM) | 0.098 (≈ 0.242 µM) | 0.049 (≈ 0.121 µM) | 3.12 (≈ 7.73 µM) | 0.391 (≈ 0.967 µM) | 1.56 (≈ 3.86 µM) | 0.195 (≈ 0.482 µM) | 3.12 (≈ 7.73 µM) | 0.025 (≈ 0.0618 µM) | 0.025 (≈ 0.0618 µM) | 0.025 (≈ 0.0618 µM) | 0.195 (≈ 0.482 µM) | 0.391 (≈ 0.967 µM) | 
3 | NC1CC12CCN(c1cc3c(cc1F)c(=O)c(C(=O)O)cn3C1CC1)C2 (centres unmarked) [Example 5, 7-(1-amino-5-azaspiro[2,4]heptane-5-yl)-1-cyclopropyl-6-fluoro-1,4-dihydro-4-oxoquinoline-3-carboxylic acid] | 0.025 (≈ 0.07 µM) | 0.049 (≈ 0.137 µM) | 0.098 (≈ 0.274 µM) | 0.004 (≈ 0.0112 µM) | 0.098 (≈ 0.274 µM) | 0.391 (≈ 1.09 µM) | 0.195 (≈ 0.546 µM) | 0.049 (≈ 0.137 µM) | 0.049 (≈ 0.137 µM) | 0.049 (≈ 0.137 µM) | 1.56 (≈ 4.37 µM) | 0.781 (≈ 2.19 µM) | 1.56 (≈ 4.37 µM) | 0.098 (≈ 0.274 µM) | 1.56 (≈ 4.37 µM) | 0.098 (≈ 0.274 µM) | 0.025 (≈ 0.07 µM) | 0.098 (≈ 0.274 µM) | 0.391 (≈ 1.09 µM) | 0.391 (≈ 1.09 µM) | 
4 | NC1CC12CCN(c1nc3c(cc1F)c(=O)c(C(=O)O)cn3C1CC1)C2 (centres unmarked) [Example 6, 7-(1-amino-5-azaspiro[2,4]heptane-5-yl)-1-cyclopropyl-6-fluoro-4-oxo-1,4-dihydro-1,8-naphthyridine-3-carboxylic acid] | < 0.002 | 0.007 (≈ 0.0195 µM) | 0.049 (≈ 0.137 µM) | 0.391 (≈ 1.09 µM) | 0.025 (≈ 0.0698 µM) | 0.195 (≈ 0.544 µM) | 0.195 (≈ 0.544 µM) | 0.025 (≈ 0.0698 µM) | 0.025 (≈ 0.0698 µM) | 0.025 (≈ 0.0698 µM) | 1.56 (≈ 4.36 µM) | 0.391 (≈ 1.09 µM) | 1.56 (≈ 4.36 µM) | 0.098 (≈ 0.273 µM) | 1.56 (≈ 4.36 µM) | 0.049 (≈ 0.137 µM) | < 0.002 | 0.049 (≈ 0.137 µM) | 0.391 (≈ 1.09 µM) | 0.195 (≈ 0.544 µM) | 
5 | CC(O)C(=O)O.NC1CC12CCN(c1c(F)cc3c(=O)c(C(=O)O)cn(C4CC4)c3c1Cl)C2 (centres unmarked) [Example 4, 7-(1-amino-5-azaspiro[2,4]heptane-5-yl)-8-chloro-1-cyclopropyl-6-fluoro-1,4-dihydro-4-oxoquinoline-3-carboxylic acid lactate] | 0.007 | 0.025 | 0.025 | < 0.002 | 0.025 | 0.049 | 0.098 | 0.025 | 0.025 | 0.025 | 0.781 | 0.098 | 0.781 |  | 0.781 | 0.013 | 0.007 | 0.025 | 0.098 | 0.195 | MIC (Escherichia coli DC 2; Escherichia coli): 0.049 µg/mL
6 | NCC1CC12CCN(c1c(F)cc3c(=O)c(C(=O)O)cn(C4CC4)c3c1F)C2 (centres unmarked) [Example 15] | 0.049 (≈ 0.126 µM) | 0.195 (≈ 0.501 µM) | 0.098 (≈ 0.252 µM) | 0.025 (≈ 0.0642 µM) | 0.098 (≈ 0.252 µM) | 0.195 (≈ 0.501 µM) | 0.391 (≈ 1 µM) | 0.098 (≈ 0.252 µM) | 0.195 (≈ 0.501 µM) | 0.098 (≈ 0.252 µM) | 1.56 (≈ 4.01 µM) | 0.781 (≈ 2.01 µM) | 1.56 (≈ 4.01 µM) | 0.098 (≈ 0.252 µM) | 1.56 (≈ 4.01 µM) | 0.195 (≈ 0.501 µM) | 0.049 (≈ 0.126 µM) | 0.195 (≈ 0.501 µM) | 0.781 (≈ 2.01 µM) | 0.391 (≈ 1 µM) | 
7 | COc1c(N2CCC3(CC3N)C2)c(F)cc2c(=O)c(C(=O)O)cn(C3CC3)c12 (centres unmarked) [Example 19, 7-(1-amino-5-azaspiro[2,4]heptane-5-yl)-1-cyclopropyl-8-methoxy-6-fluoro-1,4-dihydro-4-oxoquinoline-3-carboxylic acid] | 0.025 (≈ 0.0645 µM) | 0.049 (≈ 0.126 µM) | 0.025 (≈ 0.0645 µM) | 0.007 (≈ 0.0181 µM) | 0.049 (≈ 0.126 µM) | 0.098 (≈ 0.253 µM) | 0.098 (≈ 0.253 µM) | 0.049 (≈ 0.126 µM) | 0.098 (≈ 0.253 µM) | 0.049 (≈ 0.126 µM) | 1.56 (≈ 4.03 µM) | 0.391 (≈ 1.01 µM) | 1.56 (≈ 4.03 µM) | 0.049 (≈ 0.126 µM) | 1.56 (≈ 4.03 µM) | 0.025 (≈ 0.0645 µM) | 0.025 (≈ 0.0645 µM) | 0.049 (≈ 0.126 µM) | 0.195 (≈ 0.503 µM) | 0.391 (≈ 1.01 µM) | 
8 | CNC1CC12CCN(c1cc3c(cc1F)c(=O)c(C(=O)O)cn3C1CC1)C2 (centres unmarked) [Example 11, 7-(1-methylamino-5-azaspiro[2,4]heptane-5-yl)-1-cyclopropyl-6-fluoro-1,4-dihydro-4-oxoquinoline-3-carboxylic acid] | 0.049 (≈ 0.132 µM) | 0.098 (≈ 0.264 µM) | 0.098 (≈ 0.264 µM) | 0.004 (≈ 0.0108 µM) | 0.098 (≈ 0.264 µM) | 0.781 (≈ 2.1 µM) | 0.781 (≈ 2.1 µM) | 0.098 (≈ 0.264 µM) | 0.098 (≈ 0.264 µM) | 0.098 (≈ 0.264 µM) | 3.12 (≈ 8.41 µM) | 1.56 (≈ 4.21 µM) | 3.12 (≈ 8.41 µM) | 0.195 (≈ 0.525 µM) | 3.12 (≈ 8.41 µM) | 0.098 (≈ 0.264 µM) | 0.049 (≈ 0.132 µM) | 0.098 (≈ 0.264 µM) | 0.781 (≈ 2.1 µM) | 0.781 (≈ 2.1 µM) | 
9 | C[C@H]1COc2c(N3CCC4(CC4C(=O)O)C3)c(F)cc3c(=O)c(C(=O)O)cn1c23 (some centres unmarked) [Example 14] | 0.195 (≈ 0.485 µM) | 0.391 (≈ 0.972 µM) | 0.098 (≈ 0.244 µM) | 0.098 (≈ 0.244 µM) | 0.781 (≈ 1.94 µM) | 1.56 (≈ 3.88 µM) | 1.56 (≈ 3.88 µM) | 0.391 (≈ 0.972 µM) | 1.56 (≈ 3.88 µM) | 0.781 (≈ 1.94 µM) | 6.25 (≈ 15.5 µM) | 6.25 (≈ 15.5 µM) | 12.5 (≈ 31.1 µM) | 0.391 (≈ 0.972 µM) | 12.5 (≈ 31.1 µM) | 0.098 (≈ 0.244 µM) | 0.195 (≈ 0.485 µM) | 0.098 (≈ 0.244 µM) | 3.12 (≈ 7.77 µM) | 1.56 (≈ 3.88 µM) | 
10 | CNC1CC12CCN(c1c(F)cc3c(=O)c(C(=O)O)cn4c3c1OC[C@@H]4C)C2 (stereo partly drawn) [Example 10, 9-fluoro-3-(S)-methyl-10-(1-methylamino-5-azaspiro[2,4]heptane-5-yl)-7-oxo-2,3-dihydro-7H-pyrido-[1,2,3-de]-1,4-benzoxazine-6-carboxylic acid] | 0.025 (≈ 0.0645 µM) | 0.049 (≈ 0.126 µM) | 0.049 (≈ 0.126 µM) | 0.007 (≈ 0.0181 µM) | 0.098 (≈ 0.253 µM) | 0.195 (≈ 0.503 µM) | 0.195 (≈ 0.503 µM) | 0.049 (≈ 0.126 µM) | 0.098 (≈ 0.253 µM) | 0.049 (≈ 0.126 µM) | 1.56 (≈ 4.03 µM) | 0.391 (≈ 1.01 µM) | 1.56 (≈ 4.03 µM) | 0.049 (≈ 0.126 µM) | 1.56 (≈ 4.03 µM) | 0.049 (≈ 0.126 µM) | 0.025 (≈ 0.0645 µM) | 0.049 (≈ 0.126 µM) | 0.391 (≈ 1.01 µM) | 0.781 (≈ 2.02 µM) | 
